According to patent US20230399312A1, “SUBSTITUTED PYRIMIDINES AND METHODS OF USE” (THERAVANCE BIOPHARMA R&D IP, LLC, priority 2020, published 2023):
pKi: −log10 of the molar value.

Assays:
[1] = tested on: TGF-β-stimulated SMAD3 phosphorylation in BEAS-2B cells; test: Cellular ALK5 potency assay, inhibition of TGF-β stimulated pSMAD3 formation in BEAS-2B cells; assay type: cell-based; settings: Homo sapiens, pSMAD3, TGF-β 10 ng/mL, read-out: BEAS2B pIC50 (converted)
Procedure, shortened: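 Read-out is AlphaLISA detection of phospho-SMAD3 in lysates of BEAS-2B human lung epithelial cells. Cells are exposed to compound for 1 hour, then to 10 ng/mL TGF-β (final) for 30 minutes. Values are pIC50 from concentration–response curves.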

[2] = target: T1, recombinant human ALK5 (TGF-βR1) protein (Homo sapiens, UniProt P36897); test: Biochemical ALK5 (TGF-βR1) assay to measure pKi (LANCE Ultra ULight kinase assay); settings: apparent pKi, converted from pIC50 by Cheng-Prusoff
T1 construct: purchased Life Technologies PR9075A
T1 sequence (P36897 34-503): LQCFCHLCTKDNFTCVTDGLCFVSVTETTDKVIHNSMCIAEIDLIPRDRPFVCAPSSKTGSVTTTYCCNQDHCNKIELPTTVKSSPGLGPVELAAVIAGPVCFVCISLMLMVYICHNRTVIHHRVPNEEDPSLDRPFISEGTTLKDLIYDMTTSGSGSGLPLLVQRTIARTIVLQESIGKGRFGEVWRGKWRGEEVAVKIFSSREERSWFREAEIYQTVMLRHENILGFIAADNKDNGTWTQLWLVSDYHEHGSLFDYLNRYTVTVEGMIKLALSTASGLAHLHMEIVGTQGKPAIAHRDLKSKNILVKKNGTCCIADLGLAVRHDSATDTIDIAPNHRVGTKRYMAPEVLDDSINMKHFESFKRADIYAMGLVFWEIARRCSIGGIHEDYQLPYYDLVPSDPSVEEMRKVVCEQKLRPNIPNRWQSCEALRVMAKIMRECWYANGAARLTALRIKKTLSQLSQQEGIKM
Procedure, shortened: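 Cmpd + enzyme, 60 min RT; ATP from 125 μM (5×) stock, 60 min 37 °C; stop 12 mM EDTA/Eu anti-pThr1342 Topo2α Ab (pH 7.0 buffer); TR-FRET 665 nm. DMSO = max, SD-208 = min signal. 4-PL pIC50 → pKi (Cheng-Prusoff).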

| pKi [2] | Structure (SMILES) | IC50 [1] |
| --- | --- | --- |
| 8.50 to 9.40 | Cc1cccc(-c2nccc(Nc3ccnc(Nc4nc(C(=O)OCC5CCNCC5)cs4)n3)n2)n1 [Compound 615, 4-piperidylmethyl 2-[[4-[[2-(6-methyl-2-pyridyl)pyrimidin-4-yl]amino]pyrimidin-2-yl]amino]thiazole-4-carboxylate] | 200 to 1260 nM |
| 8.50 to 9.40 | Cc1cccc(-c2nccc(Nc3ccnc(Nc4ccnc(C(=O)OCC5CNC5)c4)n3)n2)n1 [Compound 616, azetidin-3-ylmethyl 4-[[4-[[2-(6-methyl-2-pyridyl)pyrimidin-4-yl]amino]pyrimidin-2-yl]amino]pyridine-2-carboxylate] | 25.1 to 158 nM |
| 9.50 to 10.40 | Cc1cccc(-c2nccc(Nc3ccnc(Nc4ccc(C(=O)O[C@H]5CCCNC5)nc4)n3)n2)n1 [Compound 617, [(3S)-3-piperidyl] 5-[[4-[[2-(6-methyl-2-pyridyl)pyrimidin-4-yl]amino]pyrimidin-2-yl]amino]pyridine-2-carboxylate] | 25.1 to 158 nM |
| 8.50 to 9.40 | Cc1cccc(-c2nccc(Nc3ccnc(Nc4cncc(C(=O)OC[C@H]5CCCN5)c4)n3)n2)n1 [Compound 618, [(2R)-pyrrolidin-2-yl]methyl 5-[[4-[[2-(6-methyl-2-pyridyl)pyrimidin-4-yl]amino]pyrimidin-2-yl]amino]pyridine-3-carboxylate] | 25.1 to 158 nM |
| 9.50 to 10.40 | Cc1cccc(-c2nccc(Nc3ccnc(Nc4csc(C(=O)OCCN5CCC[C@H](N)C5)c4)n3)n2)n1 [Compound 619, 2-[(3S)-3-amino-1-piperidyl]ethyl 4-[[4-[[2-(6-methyl-2-pyridyl)pyrimidin-4-yl]amino]pyrimidin-2-yl]amino]thiophene-2-carboxylate] | 25.1 to 158 nM |
| 9.50 to 10.40 | Cc1cccc(-c2nccc(Nc3ccnc(Nc4ccc(C(=O)OC[C@H]5CCCNC5)nc4)n3)n2)n1 [Compound 620, [(3S)-3-piperidyl]methyl 5-[[4-[[2-(6-methyl-2-pyridyl)pyrimidin-4-yl]amino]pyrimidin-2-yl]amino]pyridine-2-carboxylate] | 25.1 to 158 nM |
| 9.50 to 10.40 | Cc1cccc(-c2nccc(Nc3ccnc(Nc4csc(C(=O)OC[C@@H]5CCC[C@H](N)C5)c4)n3)n2)n1 [Compound 621, [(1R,3S)-3-aminocyclohexyl]methyl 4-[[4-[[2-(6-methyl-2-pyridyl)pyrimidin-4-yl]amino]pyrimidin-2-yl]amino]thiophene-2-carboxylate] | 25.1 to 158 nM |
| 7.50 to 8.40 | Cc1cccc(-c2nccc(Nc3ccnc(Nc4ccc(C(=O)OC5CNC5)cn4)n3)n2)n1 [Compound 622, azetidin-3-yl 6-[[4-[[2-(6-methyl-2-pyridyl)pyrimidin-4-yl]amino]pyrimidin-2-yl]amino]pyridine-3-carboxylate] | 25.1 to 158 nM |
| 7.50 to 8.40 | Cc1cccc(-c2nccc(Nc3ccnc(Nc4cc(C(=O)OCCN5CCNCC5)ccn4)n3)n2)n1 [Compound 624, 2-piperazin-1-ylethyl 2-[[4-[[2-(6-methyl-2-pyridyl)pyrimidin-4-yl]amino]pyrimidin-2-yl]amino]pyridine-4-carboxylate] | 200 to 1260 nM |

Continued, molecule first:

| Structure (SMILES) | pKi [2] | IC50 [1] |
| --- | --- | --- |
| Cc1cccc(-c2nccc(Nc3ccnc(Nc4ncc(N5C[C@@H](C)N[C@@H](C)C5)s4)n3)n2)n1 [Compound 604, N2-[5-[(3R,5S)-3,5-dimethylpiperazin-1-yl]thiazol-2-yl]-N4-[2-(6-methyl-2-pyridyl)pyrimidin-4-yl]pyrimidine-2,4-diamine] | 7.50 to 8.40 | 200 to 1260 nM |
| Cc1cccc(-c2nccc(Nc3ccnc(Nc4ccc(C(=O)OC[C@H]5CNCCO5)nc4)n3)n2)n1 [Compound 605, [(2R)-morpholin-2-yl]methyl 5-[[4-[[2-(6-methyl-2-pyridyl)pyrimidin-4-yl]amino]pyrimidin-2-yl]amino]pyridine-2-carboxylate] | 9.50 to 10.40 | 200 to 1260 nM |
| Cc1cccc(-c2nccc(Nc3ccnc(Nc4cncc(C(=O)OCC5CCNCC5)c4)n3)n2)n1 [Compound 606, 4-piperidylmethyl 5-[[4-[[2-(6-methyl-2-pyridyl)pyrimidin-4-yl]amino]pyrimidin-2-yl]amino]pyridine-3-carboxylate] | 8.50 to 9.40 | 25.1 to 158 nM |
| Cc1cccc(-c2nccc(Nc3ccnc(Nc4csc(C(=O)OCC5CCNCC5)c4)n3)n2)n1 [Compound 607, 4-piperidylmethyl 4-[[4-[[2-(6-methyl-2-pyridyl)pyrimidin-4-yl]amino]pyrimidin-2-yl]amino]thiophene-2-carboxylate] | 9.50 to 10.40 | 25.1 to 158 nM |
| Cc1cccc(-c2nccc(Nc3ccnc(Nc4cc(C(=O)OCC5CNC5)ccn4)n3)n2)n1 [Compound 608, azetidin-3-ylmethyl 2-[[4-[[2-(6-methyl-2-pyridyl)pyrimidin-4-yl]amino]pyrimidin-2-yl]amino]pyridine-4-carboxylate] | 7.50 to 8.40 | 200 to 1260 nM |
| Cc1cccc(-c2nccc(Nc3ccnc(Nc4ncc(C5=CCNC5)s4)n3)n2)n1 [Compound 609, N2-[5-(2,5-dihydro-1H-pyrrol-3-yl)thiazol-2-yl]-N4-[2-(6-methyl-2-pyridyl)pyrimidin-4-yl]pyrimidine-2,4-diamine] | 8.50 to 9.40 | 25.1 to 158 nM |
| Cc1cccc(-c2nccc(Nc3ccnc(Nc4ccnc(C(=O)O)c4)n3)n2)n1 [Compound 610, 4-[[4-[[2-(6-methyl-2-pyridyl)pyrimidin-4-yl]amino]pyrimidin-2-yl]amino]pyridine-2-carboxylic acid] | 9.50 to 10.40 | 1580 to 10000 nM |
| Cc1cccc(-c2nccc(Nc3ccnc(Nc4nc(C(=O)OC[C@@H]5CCNC5)cs4)n3)n2)n1 [Compound 611, [(3R)-pyrrolidin-3-yl]methyl 2-[[4-[[2-(6-methyl-2-pyridyl)pyrimidin-4-yl]amino]pyrimidin-2-yl]amino]thiazole-4-carboxylate] | 8.50 to 9.40 | 200 to 1260 nM |
| Cc1cccc(-c2nccc(Nc3ccnc(Nc4ccc(C(=O)OC[C@@H]5CCCN5)nc4)n3)n2)n1 [Compound 612, [(2S)-pyrrolidin-2-yl]methyl 5-[[4-[[2-(6-methyl-2-pyridyl)pyrimidin-4-yl]amino]pyrimidin-2-yl]amino]pyridine-2-carboxylate] | 9.50 to 10.40 | 25.1 to 158 nM |
| Cc1cccc(-c2nccc(Nc3ccnc(Nc4ccc(C(=O)OCCN5CCN6CCCC6C5)nc4)n3)n2)n1 (stereo not drawn) [Compound 613, 2-(3,4,6,7,8,8a-hexahydro-1H-pyrrolo[1,2-a]pyrazin-2-yl)ethyl 5-[[4-[[2-(6-methyl-2-pyridyl)pyrimidin-4-yl]amino]pyrimidin-2-yl]amino]pyridine-2-carboxylate] | 8.50 to 9.40 | 25.1 to 158 nM |
| Cc1cccc(-c2nccc(Nc3ccnc(Nc4cncc(CN5CC(C(=O)OCC6CNC6)C5)c4)n3)n2)n1 [Compound 614, azetidin-3-ylmethyl 1-[[5-[[4-[[2-(6-methyl-2-pyridyl)pyrimidin-4-yl]amino]pyrimidin-2-yl]amino]-3-pyridyl]methyl]azetidine-3-carboxylate] | 9.50 to 10.40 | 25.1 to 158 nM |
| Cc1cccc(-c2nccc(Nc3ccnc(Nc4ncc(C5=CCNCC5)s4)n3)n2)n1 [Compound 623, N4-[2-(6-methyl-2-pyridyl)pyrimidin-4-yl]-N2-[5-(1,2,3,6-tetrahydropyridin-4-yl)thiazol-2-yl]pyrimidine-2,4-diamine] | 8.50 to 9.40 | 25.1 to 158 nM |
